Results reported in patent US4800197A, “Anti-acne composition” (Richardson-Vicks Inc., priority 1987, dated 1989).

Legend:
corneocytes = conditions: C. Huber et al, Arch. Derm. Res. 257, 293-297, 1977; cited from earlier work
[1] = in vitro human skin
From the text: Excised human skin samples are obtained at autopsy and maintained under sterile conditions until used. […] The diffusion cell is composed of two compartments: the lower chamber is made of Plexiglass and the top is made of Teflon. The skin sample is mounted with the stratum corneum side exposed to the air and held on to the Teflon top with a rubber 0-ring; a tight seal between the two compartments is achieved by tightening the set screws. The cell has an effective diffusional area of 5.08 cm^2 and the dermis side of the skin is constantly bathed by filling the receptor compartment with 40 ml of isotonic saline. Adequate mixing of the receptor phase is accomplished with a magnet driven Teflon-coated stir bar moved by appropriate motor means located below the cell bath. The whole diffusion cell assembly is immersed in a water bath maintained at 30° C. using a circulating water bath. […] At hourly intervals over a period of seven hours, a one milliliter sample of the receptor fluid is withdrawn and analyzed for radioactive content by liquid scintillation counting means (Packard Tri-Carb model No. 460). […]
At the end of the seven hour period the skin sample is removed from the diffusion cell, trimmed of excess skin and glued with cyanoacrylate glue to a glass plate. […] Ten successive adhesive tape strippings are then taken and the salicylic acid content per strip determined. […]

SMILES | reduction in intercellular cohesion of the corneocytes (in words) (corneocytes) | deposition of salicylic acid in the stratum corneum (in words) [1] | rate of penetration of salicylic acid (in words) [1]
O=C(O)c1ccccc1O [Salicylic acid] | causes a reduction in intercellular cohesion of the corneocytes | – | –
CCCCCCCCCCCCOS(=O)(=O)[O-].[Na+] [surfactant D, sodium lauryl sulfate] | – | marked decrease in deposition of salicylic acid in the stratum corneum | marked increase in the penetration rate through the skin
